Assay results: patent publication US20200306244A1, “WNT INHIBITORS FOR USE IN THE TREATMENT OF FIBROSIS” (NOVARTIS AG, priority 2016, published 2020)
One block for each molecule: values may come before it.

Tests used:
[1] = system: primary kidney fibroblasts; conditions: Madan et al. 2016; cited from earlier work
[2] = Plasma exposure after last oral dose in bleomycin model (C57/BI6); format: in vivo, mouse (female C57/BI6); conditions: FIG. 1E
Protocol: (§1) The plasma concentrations of compound of formula (I′) were determined by a liquid chromatography-tandem mass spectrometry (LC/MS/MS) assay. Briefly, mouse plasma samples were extracted with a methanol-acetonitrile mixture (3:1, v/v). Supernatant was injected onto HPLC system with a Waters Atlantis T3 analytical column (2.1×30 mm, 3.5 μm, Waters Corp., Milford, Mass., USA). The mobile phases consisted of 0.1% formic acid in water (solvent A) and 0.1% formic acid in acetonitrile (solvent B), and a gradient elution method (0-1.5 min, 10% B to 95% B; 1.5-2.0 min, 95% B; 2.01 min, 10% B) at flow rate of 800 μL/min was employed for chromatographic separation. Mass spectrometric analysis was performed on a SCIEX API-4000 triple quadruple mass spectrometer (Applied Biosystems, Foster City, Calif., USA) using atmospheric pressure chemical ionization (APCI) in the positive ion mode. Multiple reaction monitoring (MRM) of compound of formula (I′) and internal standard was used for quantitative measurements, and peak integration was performed using Analyst™ 1.4 software. The lower limit of detection for the assay was 1 ng/mL. Pharmacokinetic parameters were calculated by non-compartmental regression analysis using an in house fitting program.

[3] = PK analysis of blood samples after last dose in bleomycin-treated Balb/C mice; format: in vivo, mouse (Balb/C); conditions: 5 mg/kg b.i.d. oral for 3 weeks; FIG. 2A
Protocol: as §1, with “Mass spectrometric analysis was performed on a SCIEX API-4000 triple quadruple mass spectrometer (Applied Biosystems, Foster City, Calif., USA) using atmospheric pressure chemical ionization (APCI) in the positive ion mode.” left out, “The lower limit of detection for the assay was 1 ng/mL.” left out
(§2) In a separate study to confirm the on-target activity of compound of formula (I′) in a mouse fibrosis model, bleomycin was injected in Balb/C mice, with or without orally dosed compound of formula (I′) at 5 mg/kg b.i.d. for 3 weeks. […] Tissue samples were collected 7 hour after the last dose, and the Wnt pathway target gene Axin2 mRNA expression level was measured with qRT-PCR, with the housekeeping gene, Gapdh, as an internal control.

[4] = system: Wnt pathway target gene Axin2 mRNA; test: Axin2 mRNA expression in skin tissue of bleomycin-treated Balb/C mice (qRT-PCR/TaqMan); format: in vivo, mouse (Balb/C); conditions: 5 mg/kg b.i.d. oral 3 weeks, tissue 7 hour after last dose, Gapdh internal control; FIG. 2B
Protocol: Total RNA was isolated from tissue samples and processed to perform quantitative RT-PCR analysis of […] mRNA expression, with Gapdh serving as an internal control according to the manufacturer's instructions, as previously described.
Data were analyzed with SDS 2.0 software (Applied Biosystems), statistical analysis was conducted using PRISM.
as §2, with “weeks. Blood samples at multiple time points after the last dose were collected.” for “weeks.”

[5] = system: bleomycin-induced skin fibrosis; test: Bleomycin-induced mouse skin fibrosis model, 3 weeks bleomycin then 3 weeks treatment; format: in vivo, mouse (female C57/BI6); conditions: for dermal skin thickness: FIG. 1B
Protocol: In the bleomycin model (FIG. 1 (A-E) and FIG. 2 (A-B)), fibrosis was induced in 6-week-old female C57/BI6 mice (Charles River, Sulzfeld, Germany) by injection of 100 μL 0.5 mg/ml bleomycin into a defined skin area of 1 cm' between the shoulders at the back every other day for up to six weeks. Control mice were injected with 0.9% NaCl, the solvent of bleomycin. Another group of mice received bleomycin injections for 3 weeks followed by saline (NaCl) injections for the next 3 weeks to control for spontaneous regression of fibrosis. Animals were treated with or without compound of formula (I′) at multiple dose levels twice daily for indicated weeks using suspension formulation containing 0.5% methylcellulose and 0.5% tween 80. Each group of mice were killed and the skin sections analyzed.
(§3) The anti-fibrotic effects of compound of Formula (I′) on experimental skin fibrosis was evaluated by quantification of dermal or hypodermal thickening, respectively, analyses of myofibroblast counts and assessment of hydroxyproline content. Tissue samples were fixed in 10% phosphate-buffered formalin for 24 hours, then embedded in paraffin and cut into […] sections. The slides were stained with hematoxylin and eosin for better visualization of the tissue structure.
(§4) The hydroxyproline content was measured according to the method as described in hydroxyproline content (Woessner J. F. Arch. Biochem. Biophys. […], 93, 440-447).
(§5) The dermal thickness was analyzed with a microscope by measuring the maximal distance between the epidermal-dermal junction and the dermal-subcutaneous fat junction at 4 different skin sections in each mouse.
(§6) For quantification of myofibroblasts, skin sections were deparaffinized and incubated with 5% bovine serum albumin for 60 minutes. Cells positive for α-smooth muscle actin (α-SMA) were detected by incubation with monoclonal anti-α-SMA antibodies (clone 1A4; Sigma-Aldrich, Steinheim, Germany) for 2 hours at room temperature followed by incubation with 3% hydrogen peroxide for 10 minutes. […] antibodies labeled with horseradish peroxidase were used as secondary antibodies. The expression of α-SMA was visualized with 3,3′-diaminobenzidine tetrahydrochloride. Monoclonal mouse IgG antibodies were used as controls
Porcupine Inhibitor Compound of Formula (I′) in the Bleomycin-Induced Mouse Fibrosis Model To test compound of formula (I′) for anti-fibrotic effects, bleomycin was injected in 6-week-old female C57/BI6 mice for 3 weeks to induce fibrosis (FIG. 1A). The control group was injected with saline. The bleomycin treated animals were further dosed with or without compound of formula (I′) b.i.d. for another 3 weeks. […] Similar observations have been obtained when examining the hydroxyproline content and myofibroblast count of mouse skin samples as shown in FIG. 1C and FIG. 1D.

[6] = Plasma exposure after last oral dose in Tsk-1 model; format: in vivo, mouse (Tsk-1); conditions: FIG. 3E
Protocol: as §1, with “Mass spectrometric analysis was performed on a SCIEX API-4000 triple quadruple mass spectrometer (Applied Biosystems, Foster City, Calif., USA) using atmospheric pressure chemical ionization (APCI) in the positive ion mode.” left out, “The lower limit of detection for the assay was 1 ng/mL.” left out
Similar to that described for the bleomycin-induced mouse fibrosis model, plasma exposures of compound of formula (I′) in this tight skin model were also determined following the last oral dose, and PK data are shown in FIG. 3E.

[7] = system: bleomycin-induced skin fibrosis; test: Bleomycin mouse fibrosis model in Balb/C mice, skin thickness (FIG. 4); format: in vivo
Protocol: To test compound of formula (I′) and compound of formula (I″) in a mouse fibrosis model, bleomycin was injected in Balb/C mice, with or without orally dosed compound of formula (I′) (5 mg/kg b.i.d.) and compound of formula (I″) (1 mg/kg b.i.d.) for 3 weeks. Skin tissue samples were taken at the end of the study and embedded in paraffin and skin thickness was measured (FIG. 4). Furthermore, the bleomycin treated animals were treated with or without orally dosed compound of formula (I′) at a dose of 5 mg/kg b.i.d. and compound of formula (I″) at a dose of 1 mg/kg b.i.d. for three weeks.

Tsk-1 mice fibrosis = test: Tight skin (Tsk-1) mouse genetic fibrosis model; format: in vivo, mouse (Tsk-1); conditions: for skin thickness: FIG. 3B; for myofibroblast count: FIG. 3D; for anti-fibrotic effects: Tsk-1 model
Protocol: In the Tsk-1 model (FIG. 3(A-F)), treatment with compound of formula (I′) was started at the age of 5 weeks and was continued for 5 weeks. Animals were treated with or without compound of formula (I′) at multiple dose levels twice daily using suspension formulation containing 0.5% methylcellulose and 0.5% tween 80.
as §3, §4, §5
The Hypodermal thickness in TSK-1 mice was determined by measuring the thickness of the subcutaneous connective tissue beneath the panniculus carnosus at 4 different sites of the upper back in each mouse. The evaluation was performed by 2 independent examiners.
as §6
To further test the anti-fibrotic effects of compound of formula (I′), we turned to a mouse genetic fibrosis model, the tight skin model (Tsk-1). Tsk-1 mice contain a spontaneous duplication mutation of fibrillin-1 gene, which leads to activation of TGFβ signaling, and the subsequent fibrosis (increased in dermal and hypodermal thickness).
Five week old wild type or Tsk-1 mice were treated with or without compound of formula (I′) b.i.d. for 5 weeks (FIG. 3A).

skin fibrosis markers = conditions: clinical trial; Rice et al. 2015; cited from earlier work
[8] = all dose levels (2.5, 5, 10 mg/kg) b.i.d. for 5 weeks

Molecule: Cc1cc(-c2ccc(CC(=O)Nc3ccc(-c4cccnc4)cc3)cc2)ccn1 [C59]
TGFβ-induced Axing induction [1]: could abrogate TGFβ-induced Axing induction

oral bioavailability [3]: good oral bioavailability
Molecule: CC(=O)N1CCN(c2ccc(NC(=O)Cc3cnc(-c4ccnc(F)c4)c(C)c3)nc2)CC1 [compound of formula (I′), N-(5-(4-acetylpiperazin-1-yl)pyridin-2-yl)-2-(2′-fluoro-3-methyl-[2,4′-bipyridin]-5-yl)acetamide]
absorption and oral exposure ([2]; after last oral dose, 2.5-10 mg/kg b.i.d.): highly absorbed and showed high oral exposures
plasma exposures, dose proportionality ([2]; from […] to 10 mg/kg): increased approximately dose proportionally
reduction of Axin2 mRNA expression [4]: 54%
dermal skin thickness ([5]; 5 mg/kg and 10 mg/kg groups, oral b.i.d. 3 weeks): reduced the skin thickness to levels lower than the baseline
fibrosis reversal (hydroxyproline content and myofibroblast count) ([5]; 5 and 10 mg/kg groups): strong evidence of fibrosis reversal
dermal skin thickness ([5]; all dose levels (2.5, 5, 10 mg/kg) oral b.i.d. for 3 weeks after 3 weeks bleomycin): reduced dermal skin thickness at all dose levels in a dose dependent manner
hydroxyproline content ([5]; all dose levels (2.5, 5, 10 mg/kg) oral b.i.d., FIG. 1C): to levels lower than the baseline and closer to the control group
myofibroblast count ([5]; all dose levels (2.5, 5, 10 mg/kg) oral b.i.d., FIG. 1D): to levels lower than the baseline and closer to the control group
plasma exposures compared with bleomycin model ([6]; after last oral dose): comparable between the two separate experiments
plasma exposures, dose proportionality ([6]; from […] to 10 mg/kg): increased approximately dose proportionally
dermal skin thickness ([7]; 5 mg/kg b.i.d. oral for three weeks): induce the reduction of dermal skin thickness
skin thickness (Tsk-1 mice fibrosis; 5 and 10 mg/kg groups): reduced to levels lower than the baseline and closer to the control group
myofibroblast count (Tsk-1 mice fibrosis; 5 and 10 mg/kg groups): reduction of the myofibroblast count towards control level
hypodermal skin thickness (Tsk-1 mice fibrosis; H&E staining of mouse skin samples, FIG. 3F): significantly reduced hypodermal skin thickness
anti-fibrotic effects (Tsk-1 mice fibrosis): robust anti-fibrotic effects
skin thickness (Tsk-1 mice fibrosis; [8]): significant anti-fibrotic effects at all dose levels
hydroxyproline content (Tsk-1 mice fibrosis; all dose levels (2.5, 5, 10 mg/kg) b.i.d. for 5 weeks, FIG. 3C): significant anti-fibrotic effects at all dose levels
myofibroblast count (Tsk-1 mice fibrosis; [8]): significant anti-fibrotic effects at all dose levels

Molecule: Cc1cc(-c2ncc(CC(=O)Nc3ccc(-c4cnccn4)cn3)cc2C)ccn1 [compound of formula (I″), 2-(2′,3-dimethyl-[2,4′-bipyridin]-5-yl)-N-(5-(pyrazin-2-yl)pyridin-2-yl)acetamide]
dermal skin thickness ([7]; 1 mg/kg b.i.d. oral for three weeks): induce the reduction of dermal skin thickness
in vivo activity compared to compound of Formula (I′) ([7]; 1 mg/kg b.i.d. vs 5 mg/kg b.i.d.): showed even better in vivo activities
anti-fibrotic effects (Tsk-1 mice fibrosis): robust anti-fibrotic effects

Molecule: Fresolimumab: anti-TGFβ antibody
skin fibrosis markers (skin fibrosis markers): Reduction of the skin fibrosis markers has been observed
